# From PubChem BioAssay AID1996
# Settings: buffer; pH 7.4; 200.0 µM
row,solubility kinetic [µg/mL],Structure (SMILES)
1,45.2,COc1cccc(C(=O)Nc2ccc(C(=O)NCC3CCCO3)cc2)c1 (configuration not stated)
2,> 49.3,Cc1ccc(C(=O)N2CCN(C34CC5CC(CC(C5)C3)C4)CC2)o1
3,< 0.4,CS(=O)(=O)Nc1ccc(C(=O)Nc2ccc3ccccc3c2)cc1
4,24.7,Cn1c(CNC(=O)c2ccc(F)cc2)cc2ccccc21
5,1.6,CCC(NC(=S)NC1CCCCC1)c1ccc(C(C)C)cc1 (configuration not stated)
6,16.9,CC(=O)N1c2ccccc2C(=O)C1N(C)c1ccc(C)cc1 (configuration not stated)
7,6.7,Cc1cccc(N2CCN(C(=O)c3ccc(S(=O)(=O)N(C)c4ccccc4)cc3)CC2)c1C
8,> 42.9,CC(=O)c1c(C)[nH]c(=S)c(C#N)c1-c1ccc(F)cc1
9,> 53,Cc1cc(C)c(C(=O)Nc2ccc(C)c(C)c2)c(CC(C)(C)C(=O)O)c1
10,> 45,COC(=O)c1scc(C)c1NC(=O)c1cccc(C#N)c1
11,17.3,CC(C)C(C)NC(=O)Cn1cnc2c(oc3ccccc32)c1=O (configuration not stated)
12,9.4,CC1CC(C)CN(S(=O)(=O)c2ccc3c(c2)CC(=O)N3)C1 (configuration not stated)
13,8.4,C=CCc1cccc(C=Nc2c[nH]c(=O)[nH]c2=O)c1O
14,21.1,CCCCc1ccc(NC(=O)NCc2cccnc2)cc1
15,34.4,CCC/C(O)=C1\C(=O)CCCC1=NCCc1c(C)[nH]c2ccccc12
16,> 37.7,CN(Cc1nc2ccccc2n1C)c1ccccc1
17,> 48.1,O=C(Nc1cccc(S(=O)(=O)N2CCCC2)c1)c1ccco1
18,> 46.7,O=C(OCC(=O)c1ccc(Cl)cc1Cl)c1cnccn1
19,1.3,COc1ccc(OC)c(NC(=O)Nc2ccc3c(c2)CCC3)c1
20,0.4,CC(C)(C)c1ccc(N=C2SCC(=O)N2Cc2cccs2)cc1
21,4.8,Cc1cc(C)cc(NC(=O)N(CCC#N)Cc2cccs2)c1

row,solubility kinetic [µg/mL],Structure (SMILES)
1,< 0.6,CC1(c2ccc3noc(-c4cccc(F)c4)c3c2)OCCO1
2,49.5,COc1ccc(Oc2cccc(Cl)c2CNC(=O)CCC(=O)O)cc1
3,65.2,CN(CC(=O)Nc1ccccc1Cl)CC(=O)N(C)c1c(N)n(Cc2ccccc2)c(=O)[nH]c1=O
4,1,CN1CCN(c2nc(-c3ccccc3O)nc3ccccc23)CC1
5,8.7,Cc1ccc(NC(=O)c2ccc3[nH]c(=O)c(=O)[nH]c3c2)nc1
6,35.5,CN(Cc1ccccn1)Cc1nc(-c2ccc(Cl)cc2)no1
7,4.2,O=C(c1ccc(-c2ccc(Cl)cc2Cl)o1)N1CCOCC1
8,> 49.5,O=C(NCCCN1CCCC1=O)Nc1ccc(Cl)cc1Cl
9,> 46.6,O=C(Nc1ccc(S(=O)(=O)N2CCOCC2)cc1)C1CC1
10,36.6,Cc1ccc(NC(=O)CCCc2ccccc2)nc1
11,> 42,Cc1nc2ccccc2c(=O)n1CCc1ccc(O)cc1
12,4,O=C1/C(=C\c2ccc(O)c(O)c2)SC(=S)N1Cc1ccccc1
13,> 43.4,Cc1ccc(NC(=O)NCCCN2CCCC2=O)c(C)c1
14,> 45.5,CC(OC(=O)C1CC1)C(=O)Nc1ncc(Cl)cc1Cl (configuration not stated)
15,> 43.6,CCOc1ccc(/C=N/N2C(C)CCCC2C)cc1OC (configuration not stated)
16,0.5,COc1ccc(Cl)cc1C(=O)Nc1ccc(NC(=O)C(C)C)cc1
17,> 36.7,CC(C)NC(=O)CCCc1c[nH]c2ccccc12
18,> 46,O=C1CCN(Cc2nc(-c3ccc(Cl)cc3)no2)CCN1
19,42.2,CCN(CC)Cc1c(O)ccc2c1O/C(=C\C=C\c1ccccc1)C2=O
20,> 47.3,Cc1c(NC(=O)CSCc2ccccc2)cccc1C(=O)O
21,> 53.2,CC(=O)NCCc1nc2cc(NC(=O)c3ccc(F)cc3)ccc2n1C

row,solubility kinetic [µg/mL],Structure (SMILES)
1,10.8,Cc1ccsc1CN(C)CC(=O)NCC(=O)Nc1ccc(F)c(F)c1F
2,> 52.8,CC(C)C(=O)NC(NC1CCS(=O)(=O)C1)C(Cl)(Cl)Cl (configuration not stated)
3,1.3,Cc1c(C)c2ccc(OCC(=O)Nc3cccnc3)cc2oc1=O
4,31.7,O=C(NCC1CCCCC1)c1cccnc1Cl
5,> 30.5,Cn1cnc([N+](=O)[O-])c1SCCO
6,> 49.2,O=C(Cn1cc(C(F)(F)F)ccc1=O)NCc1ccc(F)cc1
7,< 0.4,O=C(COc1ncnc2cc(Cl)ccc12)c1ccc2c(c1)OCCO2
8,< 0.3,Cc1ccc(N2CC(=O)Nc3c(oc4nc(-c5ccccc5)cc(C)c34)C2=O)cc1
9,29.4,Cc1ccc(NC(=O)C(C)SCc2nc3sc4c(c3c(=O)[nH]2)CCCC4)nc1 (configuration not stated)
10,> 42.3,Cc1nc([N+](=O)[O-])cn1CC(O)c1ccc(Cl)cc1 (configuration not stated)
11,> 41.6,COc1ccccc1C(=O)NC(=O)COC(=O)C1CC1
12,> 50.2,O=C(NCC(c1ccco1)N1CCOCC1)c1ccc(Cl)cc1 (configuration not stated)
13,19.5,NC1=NC(=O)/C(=C/c2ccsc2)S1
14,> 52.1,CC(C)N(C(=O)Cn1cc(SCC(N)=O)c2ccccc21)C(C)C
15,52.7,CN(C)S(=O)(=O)c1cc(NC(=O)COC(=O)c2nc(Cl)ccc2Cl)ccc1Cl
16,< 0.3,COc1ccc(NC(=O)c2ccc(NC(=O)C3CC3)cc2)cc1
17,> 44.9,CCN1C(=O)c2ccccc2Sc2ccc(C(=O)O)cc21
18,> 29.7,CCCCNc1c([N+](=O)[O-])ncn1C
19,> 52,Cc1cc(C)c(NC(=O)C2CCCO2)c(C)c1NC(=O)C1CCCO1 (configuration not stated)
20,34.1,COc1cc([N+](=O)[O-])ccc1NC(=O)CN1CCc2cc(OC)c(OC)cc2C1

# More lines, now with the values behind:
row,Structure (SMILES),solubility kinetic [µg/mL]
1,C[Si](C)(C)n1ccnc1,14.6
2,CN1CCN(CC(=O)c2ccccc2F)CC1.O=C(O)C(=O)O,42.9
3,Cc1c(Cc2ccccc2)c(=O)n2c([nH]c3ccccc32)c1C#N,< 0.2
4,Cc1ccc(OCCNC(=O)CCc2ccccc2)cc1C,12.9
5,CC1CC(C)CN(S(=O)(=O)c2cccc3nonc23)C1 (configuration not stated),5.5
6,O=C(O)/C=C/C(=O)NCCc1ccccc1,> 32.9
7,COc1ccc(NC(=O)c2cc3ccccc3o2)cc1S(=O)(=O)N1CCCCC1,9.2
8,CCCn1c(CCl)nc2cc(S(=O)(=O)N3CCOCC3)ccc21,0.6
9,CC(Nc1nc(-c2ccccc2F)nc2ccccc12)c1ccccc1 (configuration not stated),3.2
10,COc1ccc(CCC(=O)NCCOc2ccccc2Cl)cc1,> 50.1
11,Cc1ccc(S(=O)(=O)N(C)C)cc1NC(=O)c1cc(-c2ccncc2)nc2ccccc12,10
12,O=S(=O)(c1ccccc1)N1CCN(c2cccc(Cl)c2)CC1,3.8
13,COc1ccc(CCC2CCNCC2)cc1.Cl,> 38.4
14,CSCC[C@H](NC(=O)c1cccc(S(=O)(=O)N2CCCCCC2)c1)c1nc2ccccc2[nH]1,2.5
15,COc1ccc(C2=NOC(C(=O)NCc3cccnc3)C2)cc1 (configuration not stated),> 46.7
16,CCN(CC(=O)Nc1c(F)cccc1F)C(=O)c1ccccn1,> 47.9
17,COC(=O)/C=C1\N/C(=N\c2nc(C)cc(C)n2)N(c2ccccc2)C1=O,> 52.7
18,CCc1nnc(NC(=O)c2ccc(C)o2)s1,> 35.6
19,COc1ccccc1/C=N/OCc1cc(C(C)=O)ccc1OC,8.4
20,COc1ccccc1C(=O)OCCN=C1NS(=O)(=O)c2ccccc21,> 54.1
21,CCN(CC)CC1C(=O)N(c2ccc(OC)cc2)C1c1ccccc1 (configuration not stated),> 50.8
22,COC(=O)c1ccccc1C(=O)N1CC(O)CO1 (configuration not stated),> 37.7
23,OC1(c2ccccn2)COc2ccccc2O1 (configuration not stated),28.1
24,CC(=O)c1ccc(OCCCC(=O)NCCc2ccccc2)cc1,38.8
25,CCOC(=O)N1CCN(C(=O)COC(=O)c2cc(C)ccc2C)CC1,> 52.3
26,CC(=O)N1CCN(c2ccc(NC(=O)c3ccc(F)cc3)cc2)CC1,10.6
27,Cn1cc(C=O)c2ccccc21,> 23.9
28,O=C(NC1CC1)C1CCN(c2nc3ccccc3s2)CC1,> 45.2

row,Structure (SMILES),solubility kinetic [µg/mL]
1,CN(Cc1ccccc1)C(=O)COc1cccnc1[N+](=O)[O-],> 45.2
2,Cc1cc(C(=O)Nc2cccc(C)c2C)c2ccccc2n1,40.1
3,CC(=O)c1cccc(NC(=O)COc2cc(C)on2)c1,> 41.1
4,O=C(CNC(=O)c1ccccc1)OCC(=O)c1c[nH]c2ccccc12,18.6
5,Cc1ccc(NC(=O)c2ccc(Cl)c(S(=O)(=O)NCc3ccco3)c2)c(O)c1,7.3
6,COCCNC(=O)C(=O)c1c(-c2ccccc2)[nH]c2ccccc12,> 48.4
7,CC(C)(CNC(=O)CCC1CCCC1)CNC(=O)CCC1CCCC1,27.1
8,CC[n+]1oc(-c2ccccc2)cc1C.F[B-](F)(F)F,37.4
9,CCn1c([N+](=O)[O-])nc2c1c(=O)[nH]c(=O)n2C,> 35.9
10,CC1=C([N+](=O)[O-])C(c2ccc(O)c(O)c2)NC(=O)N1 (configuration not stated),> 39.8
11,O=c1[nH]c2ccccc2nc1-c1ccccc1,3.9
12,CC1CN(c2ccnc3cc(Cl)ccc23)CC(C)O1 (configuration not stated),> 41.5
13,N#Cc1c(-c2ccc(F)cc2)c2c([nH]c1=O)-c1ccccc1OC2,1.2
14,O=C(COC(=O)c1ccc[n+]([O-])c1)Nc1ccc([N+](=O)[O-])cc1Cl,> 52.8
15,Cc1csc(NC(=O)c2cccnc2)n1,32.5
16,CC(C)CCn1c(=O)[nH]c2ccccc21,> 30.6
17,COc1cc(S(=O)(=O)NCc2ccncc2)c(OC)cc1C,> 48.4
18,O=C(NCc1cccnc1)Nc1cc(Cl)cc(Cl)c1,15.2
19,O=C(/C=C/c1ccccc1)Nc1sc2c(c1C(=O)O)CCC2,> 47
20,O=C(COC(=O)c1cc(S(=O)(=O)N2CCCC2)ccc1O)Nc1ccccc1Br,9.6
21,O=C(COC(=O)CC1CC2CCC1C2)NCc1ccc(Cl)cc1 (configuration not stated),6.2
22,CC(C)C(Nc1ccc(C(F)(F)F)cc1[N+](=O)[O-])C(=O)O (configuration not stated),> 45.9
23,C/C(=N/NC(=O)CNC(=O)c1cccnc1)c1ccco1,> 42.9
24,Oc1ccc2ccccc2c1CNc1ccc(Br)cc1,5.5
25,CC1CN(c2ccc([N+](=O)[O-])c(N3CCCCC3)c2)CCN1 (configuration not stated),42.4
26,CCc1cc(=O)[nH]c(SCC(=O)N2CCOCC2)n1,> 42.5
27,Cc1ccc(SCC(=O)O/N=C(\N)c2cccnc2)cc1,40
